Measured values as given in article PMC4506092, “Utilizing Chemical Genomics to Identify Cytochrome b as a Novel Drug Target for Chagas Disease” (PLoS Pathogens, 2015).
Several values for one entry are separate records, joined by “and”; a condition that tells them apart may be missing. Equal values may be shown once. Read-outs that look alike come from different tables or passages of the source.

Legend:
[1] = test system: T. cruzi epimastigotes (GNF7686-resistant, DR); assay: T. cruzi epimastigote growth assay (CellTiter-Glo), GNF7686-resistant; assay type: cell-based, Trypanosoma cruzi
Procedure: To determine compound activity on the T. cruzi epimastigote form, epimastigotes (20 μL; 2.5 × 10^5 parasites / mL) were added to 384-well assay plates containing 20 μL of LIT media with pre-dispensed compounds (0.2% DMSO final concentration) and incubated for seven days at 26°C / 0% CO2. Parasite viability was assessed at the end of this incubation period using the CellTiter-Glo Luminescent Cell Viability Assay (Promega). Luminescence as a measure of parasite viability was measured on the EnVision plate reader.
Resistant epimastigotes were cloned by the limiting dilution technique.

[2] = test system: T. cruzi trypomastigotes (GNF7686-resistant, DR); assay: T. cruzi trypomastigote viability assay (CellTiter-Glo), GNF7686-resistant; assay type: cell-based, Trypanosoma cruzi; settings: for EC50: GNF7686-resistant T. cruzi, 48-hour incubation
Procedure: To assess compound efficacy on trypomastigotes, parasites (30 μL; 2 × 10^6 trypomastigotes / mL) were added to 384-well plates containing 10 μL of RPMI-1640 without phenol red (Invitrogen) and supplemented with 10% FBS and 100 IU penicillin / 100 µg streptomycin per mL, and then treated with compounds (0.2% DMSO final concentration). Following a 48-hour incubation period, viability was assessed using the CellTiter-Glo Luminescent Cell Viability Assay (Promega).

[3] = test system: L. donovani axenic amastigotes; assay: Leishmania donovani axenic amastigote in vitro efficacy assay; assay type: cell-based; settings: 48 hours
Procedure: Leishmania donovani (L. donovani) axenic amastigotes (strain MHOM/SD/62/1S-CL2D) were maintained at 37°C / 5% CO2 in RPMI-1640 medium containing 4 mM L-glutamine, 20% heat inactivated FBS, 100 IU penicillin / 100 μg streptomycin per mL, 23 μM folic acid, 100 µM adenosine, 22 mM D-glucose, and 25 mM 2-(N-morpholino)ethanesulfonic acid (pH 5.5 adjusted at 37°C using 1M HCl).
For compound screening, axenic amastigotes were seeded into 384-well plates containing axenic amastigote medium with pre-dispensed compounds (0.25% final DMSO concentration) at a density of 9,600 cells / well. Plates were incubated for 48 hours at 37°C / 5% CO2. Cell viability was assessed using the CellTiter-Glo Luminescent Cell Viability Assay (Promega).

[4] = test system: P. falciparum yDHODH-D10attB; assay: P. falciparum SYBR Green proliferation assay, yDHODH-D10attB line; assay type: cell-based, Plasmodium falciparum
Procedure: GNF7686 and cytochrome b inhibitors were assayed for activity on two Plasmodium falciparum (P. falciparum) lines: D10attB and yDHODH-D10attB. The D10attB line is reliant on the coenzyme Q-dependent malarial dihydroorotate dehydrogenase (PfDHODH), whereas the yDHODH-D10attB line expresses also the fumarate-utilizing Saccharomyces cerevisiae (S. cerevisiae) DHODH, which circumvents reliance on PfDHODH and renders this line fully resistant to cytochrome b inhibitors. The use of these two lines allows for distinction of selection of potent cytochrome b inhibitors as described in detail in the Results section. Growth and viability of P. falciparum cell lines (in the presence or absence of drug) in infected erythrocytes were assessed using a SYBR Green-based proliferation assay exactly as described previously.

[5] = test system: S. cerevisiae strain NF7061; assay: S. cerevisiae susceptibility assay, YPD (dextrose) medium; assay type: cell-based, Saccharomyces cerevisiae; settings: 24 hours
Procedure: (§1) The minimal inhibitory concentrations (MIC) of the compounds for inhibition of S. cerevisiae drug pump knock-out strain NF7061 (MATa his3Δ 1; leu2Δ 0; met15Δ 0; ura3Δ 0; snq2::KanMX; pdr5::KanMX; pdr1::NAT1; pdr3::KanMX; yap1::NAT1; pdr2::LEU2; yrm1::MET; yor1::LYS2) were determined by a modification of the microdilution technique described elsewhere. Briefly, two-fold dilutions of the compound solution in DMSO were made. They were added to each well of 96-well assay plate containing 200 μL per well of either YPD (1% Difco Yeast Extract, 2% Difco Bacto Peptone and 2% Dextrose) or YPG (3% of glycerol in replacement of 2% Dextrose in YP) medium. Early stationary yeast NF7061 cells grown in either medium were collected and resuspended to 2 × 10^5 cells / mL. Ten microliters of the yeast cell suspension were inoculated to each well of the plates containing medium and compound to achieve a final inoculum of approximately 10^4 CFU / mL. The plates were incubated at 30°C for 24 hours (containing YPD) or 48 hours (containing YPG).

[6] = test system: S. cerevisiae strain NF7061; assay: S. cerevisiae susceptibility assay, YPG (glycerol) medium; assay type: cell-based, Saccharomyces cerevisiae; settings: 48 hours
Procedure: as §1

[7] = test system: T. cruzi epimastigote respiration (wild-type); assay: T. cruzi epimastigote respiration (oxygen consumption, MitoXpress-Xtra), wild-type; assay type: cell-based; settings: Trypanosoma cruzi; intact epimastigotes
Procedure: GNF7686 and cytochrome b inhibitors (0.2% DMS0 final concentration) were added to 384-well assay plates containing 20 μL of assay buffer (250 mM sucrose, 15 mM KCl, 5 mM MgCl2, 1 mM EGTA, 30 mM K2HPO4, pH 7.4) and allowed to dissolve for two hours. Meanwhile, T. cruzi epimastigotes were harvested (800 × g for 5 min at 4°C), washed twice with buffer A (10 mM Tris-HCl, pH = 7.4, 0.23 M mannitol, 0.07 M sucrose, 0.2 mM EDTA, 0.2% bovine serum albumin, 0.5 mM phenylmethanesulfonyl fluoride), and finally resuspended in buffer A at a final concentration of 150 × 10^6 epimastigotes / mL. Next, 20 μL of T. cruzi epimastigote suspension (3 x 10^6 parasites) was added to each sample well, and then 15 μL of MitoXpress-Xtra probe (Cayman Chemicals) was added (final assay volume of 60 μL). Probe phosphorescence is quenched in the presence of oxygen and is inversely proportional to the amount of oxygen present in the solution. […] The assay plate was transferred to a Gemini XPS fluorescence plate reader (Molecular Devices) and read at 3 minute intervals at excitation and emission wavelengths of 380 nm and 650 nm, respectively, for 30 minutes at 37°C. The slope for the linear portion of time course of fluorescence increase (rate of oxygen consumption) was calculated after subtraction of blank well values. […]

[8] = Trypanosoma cruzi, 168 h, GNF7686-resistant T. cruzi culture, seven days, read-out: Epimastigote EC50, DR
[9] = Plasmodium falciparum; read-out: P. falciparum EC50, yDHODH-D10attB
[10] = Saccharomyces cerevisiae, NF7061, MIC visual growth inhibition screen
[11] = MIC visual growth inhibition screen

SMILES	EC50 [1, 8]	EC50 ([2]; Trypanosoma cruzi)	EC50 ([3]; Leishmania donovani)	EC50 [4, 9]	EC50 [5, 10]	EC50 [6, 10]	EC50 ([1]; GNF7686-resistant T. cruzi culture, seven days, read-out: Epimastigote EC50, DR)	EC50 [2]	EC50 [3]	EC50 ([4]; read-out: P. falciparum EC50, yDHODH-D10attB)	EC50 [5, 11]	EC50 [6, 11]	Shift of epimastigote EC50, GNF7686-resistant vs wild-type [1]	Shift of trypomastigote potency, mutant vs wild-type [2]	EC50 ([4]; Plasmodium falciparum, read-out: P. falciparum EC50, yDHODH-D10attB)	IC50 [7]	EC50 ([1]; Trypanosoma cruzi, epimastigote clones, read-out: EC50 of three clones isolated from the GNF7686-resistant culture)
O=C(Cn1ccnc1[N+](=O)[O-])NCc1ccccc1 [Benznidazole]	6.7 ± 0.6 µM	11 ± 0.58 µM	> 25 µM	> 12.5 µM	> 40 µM	> 40 µM	–	–	–	–	–	–	–	–	–	–	–
CO/C(=C/C(N)=O)[C@H](C)[C@H](/C=C/c1csc(-c2csc([C@@H](C)/C=C/C=C/C(C)C)n2)n1)OC [Myxothiazol]	–	–	–	–	–	–	0.43 ± 0.08 µM	2.9 ± 0.43 µM	9.6 ± 3.9 µM	8.4 ± 1.6 µM	30 ± 10 µM	0.07 ± 0.01 µM	–	–	–	–	–
CCCCCC[C@H]1C(=O)O[C@H](C)[C@H](NC(=O)c2cccc(NC=O)c2O)C(=O)O[C@@H](C)[C@@H]1OC(=O)CC(C)C [Antimycin A]	1.8 ± 0.21 µM	4.3 ± 1.3 µM	0.01 ± 0.004 µM	–	5 µM	< 0.002 µM	–	–	–	–	–	–	40 fold	20 fold	> 12.5 µM	0.04 µM	–
CO\C=C(C(=O)OC)/C(C)=C\C=C\c1ccccc1 [Strobilurin]	0.34 ± 0.01 µM	1.4 ± 0.36 µM	9.1 ± 2.5 µM	> 12.5 µM	> 40 µM	0.1 ± 0.02 µM	–	–	–	–	–	–	–	–	–	–	–
CCc1c(C)c(C#N)c2nc3ccccc3n2c1O [GNF7686]	0.73 ± 0.04 µM	4.5 ± 0.84 µM	0.46 ± 0.28 µM	> 12.5 µM	> 40 µM	5 µM	–	–	–	–	–	–	~ 5 fold and ~ 4 fold	–	–	0.21 µM	~1 µM
